# From patent US10766899B2, “Methods for preparing substituted imidazo[4,5-b]pyrazines” (Cytokinetics, Inc., priority 2006, dated 2020)
# System: rats with induced experimental autoimmune myasthenia gravis (EAMG)
# Assay: Validation of EAMG model (neostigmine), grip strength
# Type: in vivo, Sprague-Dawley rats
# Details: 0.2 mg/kg intraperitoneally, 5 minutes after treatment
# Experimental: Female Sprague-Dawley rats (200-300 g) were purchased from Charles River Laboratories and given a minimum 72 hours acclimation period. Experimental autoimmune Myasthenia Gravis (EAMG) was induced by a single intra-peritoneal injection of 500 μg/kg of AChRα1/3/5 antibody (SC-58604, Santa Cruz Biotechnology, CA, USA). Fore- and hind-limb grip measurements were acquired in triplicate with a 5 kg Dual Sensor Grip Meter (Columbus Instruments, Ohio, USA) as described in Example 1. Baseline body weight and fore- and hind-grip strength of animals was measured before inducing EAMG.
# Selected rats were divided into vehicle and compound treated groups. Neostigmine (an acetylcholinesterase inhibitor that is used clinically for the assessment and treatment of myasthenia gravis) was administered to test animals intraperitoneally at 0.2 mg/kg. After dosing, rats were reassessed for grip strength at 5, 10 and 20 minutes.
row,SMILES,forelimb grip strength (FIG. 2)
1,CN(C)C(=O)Oc1cccc([N+](C)(C)C)c1 [neostigmine],increased forelimb grip strength

# System: SKM MF
# Assay: SKM MF AC1.4: ATPase of skeletal sarcomeric proteins (actin, tropomyosin, troponin complex, myosin), PK/LDH coupled enzyme system
# Type: biochemical
# Details: screen at pCa=6.5; † mean value, ‡ median value
# Experimental: For example, test compounds can be assayed in a highly parallel fashion by using multiwell plates by placing the compounds either individually in wells or testing them in mixtures. Assay components including the target protein complex, coupling enzymes and substrates, and ATP can then be added to the wells and the absorbance or fluorescence of each well of the plate can be measured with a plate reader.
# In some embodiments, the method uses a 384 well plate format and a 25 μL reaction volume. A pyruvate kinase/lactate dehydrogenase coupled enzyme system (Huang T G and Hackney D D. (1994) J Biol Chem 269(23):16493-501) can be used to measure the rate of ATP hydrolysis in each well. As will be appreciated by those in the art, the assay components are added in buffers and reagents. The incubation periods can be optimized to give adequate detection signals over the background. The assay can be done in real time giving the kinetics of ATP hydrolysis which increases the signal to noise ratio of the assay.
# Actin was purified by first preparing an ether powder of cardiac muscle (Zot H G and Potter J D. (1981) Preparative Biochemistry 11:381-395) as described below. Subsequently, actin was cycled between the filamentous and soluble state through rounds of centrifugation and dialysis (Spudich J A and Watt S. (1971) J. Biol. Chem. 246:4866-4871). It was stored in the filamentous state at 4° C.
# Tropomyosin was extracted from the ether powder and separated from the other proteins based on pH dependent precipitations followed by successive ammonium sulfate cuts at 53% and 65% (Smillie L B. (1981) Methods Enzymol 85 Pt B:234-41). The troponins were isolated as an intact complex of TnC, TnT, and TnI. Ether powder is extracted in a high salt buffer. Successive ammonium sulfate cuts of 30% and 45% were done; the precipitate was solubilized by dialysis into a low salt buffer and then further purified on a DEAE Toyopearl column with a 25-350 mM KCl gradient.
# Just prior to screening, the actin, tropomyosin, and troponin complex are mixed together in the desired ratio (e.g., 7:1:1) to achieve maximal calcium regulation of the actin filament. The screen is conducted at a pCa=6.5. This calcium concentration is in the physiological range during muscle contraction.
# To measure the generation of ADP during the reaction, a pyruvate kinase/lactate dehydrogenase/NADH coupled enzyme system (PK/LDH) is added to the actin. The myosin is kept separately. The plates are read in real time so that kinetic curves are obtained. These compounds are in DMSO and were already spotted onto the bottoms of 384 well plates at 10 to 40 μg/ml final concentration.
# • 1. Obtain ˜1000 g skeletal muscle, such as rabbit skeletal muscle. • 2. Grind twice; extract with 2 L solution A for 15 min while stirring; add 4 L cold H2O, filter through gauze; dilute with cold H2O to ionic strength of 0.04, (about 10-fold); let settle for 3 h; collect precipitate at 7,000 rpm in GSA rotor for 15 min. • 3. Disperse pellet in 220 ml solution B; dialyze overnight against 6 L solution C; slowly add ˜400 ml equal volume cold distilled H2O; stir for 30 min; centrifuge at 10,000 rpm for 10 min in GSA rotor. • 4. Centrifuge supernatant at 19,000 rpm for 1 h. • 5. Dilute supernatant to ionic strength of 0.04 (˜8-fold); let myosin settle overnight; collect about 5-6 L fluffy myosin precipitate by centrifuging at 10,000 rpm for 10 min in GSA rotor. • 6. Resuspend pellet in minimal volume of solution G; dialyze overnight against 2 L solution D; centrifuge at 19,000 rpm for 2 h, in cellulose nitrate tubes; puncture tubes and separate myosin from fat and insoluble pellet. • 7. Dilute supernatant to 5-10 mg/ml and dialyze against solution E extensively, load onto DEAE-sephadex column. • 8. […]
row,SMILES,SKM MF AC1.4
1,"C/C=C/c1cnc2nc(O)n(C(C)C)c2n1 [(E)-1-isopropyl-6-(prop-1-enyl)-1H-imidazo[4,5-b]pyrazin-2-ol]",7.1 µM
2,"CSc1cnc2nc(O)n([C@H](C)c3ccccc3)c2n1 [(R)-6-(methylthio)-1-(1-phenylethyl)-1H-imidazo[4,5-b]pyrazin-2-ol]",2.9 µM
3,"CC[C@H](CO)n1c(O)nc2ncc(Br)nc21 [(R)-6-bromo-1-(1-hydroxybutan-2-yl)-1H-imidazo[4,5-b]pyrazin-2-ol]",1.1 µM
4,"C[C@H](c1ccccc1)n1c(O)nc2ncc(Br)nc21 [(R)-6-bromo-1-(1-phenylethyl)-1H-imidazo[4,5-b]pyrazin-2-ol]",2.4 µM
5,"CC[C@@H](C)n1c(O)nc2ncc(Br)nc21 [(R)-6-bromo-1-sec-butyl-1H-imidazo[4,5-b]pyrazin-2-ol]",1.5 µM
6,"CCCc1cnc2nc(O)n([C@@H](C)c3ccccc3)c2n1 [(S)-1-(1-phenylethyl)-6-propyl-1H-imidazo[4,5-b]pyrazin-2-ol]",29.7 µM
7,"C=Cc1cnc2nc(O)n([C@@H](C)c3ccccc3)c2n1 [(S)-1-(1-phenylethyl)-6-vinyl-1H-imidazo[4,5-b]pyrazin-2-ol]",2.4 µM
8,"CC[C@@H](CO)n1c(O)nc2ncc(Br)nc21 [(S)-6-bromo-1-(1-hydroxybutan-2-yl)-1H-imidazo[4,5-b]pyrazin-2-ol]",19.1 µM
9,"CC[C@@H](CN1CCOCC1)n1c(O)nc2ncc(Br)nc21 [(S)-6-bromo-1-(1-morpholinobutan-2-yl)-1H-imidazo[4,5-b]pyrazin-2-ol]",>49 µM
10,"C[C@@H](c1ccccc1)n1c(O)nc2ncc(Br)nc21 [(S)-6-bromo-1-(1-phenylethyl)-1H-imidazo[4,5-b]pyrazin-2-ol]",0.45 µM
11,"CC[C@H](C)n1c(O)nc2ncc(Br)nc21 [(S)-6-bromo-1-sec-butyl-1H-imidazo[4,5-b]pyrazin-2-ol]",0.8 µM
12,"COc1cnc2nc(O)n([C@@H](C)c3ccccc3)c2n1 [(S)-6-methoxy-1-(1-phenylethyl)-1H-imidazo[4,5-b]pyrazin-2-ol]",8.8 µM
13,"C/C=C/c1cnc2nc(O)n([C@@H](C)c3ccccc3)c2n1 [(S,E)-1-(1-phenylethyl)-6-(prop-1-enyl)-1H-imidazo[4,5-b]pyrazin-2-ol]",1.6 µM
14,"C/C=C\c1cnc2nc(O)n(C(CC)CC)c2n1 [(Z)-1-(pentan-3-yl)-6-(prop-1-enyl)-1H-imidazo[4,5-b]pyrazin-2-ol]",0.6 µM
15,"CCC(CN1CCN(C(=O)OC)CC1)n1c(O)nc2ncc(Br)nc21 (stereo not drawn) [methyl 4-(2-(6-bromo-2-hydroxy-1H-imidazo[4,5-b]pyrazin-1-yl)butyl)piperazine-1-carboxylate]",0.9^† μM

# Continued, values first:
row,SKM MF AC1.4,SMILES
1,0.3 µM,"CC[C@H](CN1CCOCC1)n1c(O)nc2ncc(Br)nc21 [(R)-6-bromo-1-(1-morpholinobutan-2-yl)-1H-imidazo[4,5-b]pyrazin-2-ol]"
2,5.2^‡ μM,"C[C@H](CN1CCOCC1)n1c(O)nc2ncc(Br)nc21 [(R)-6-bromo-1-(1-morpholinopropan-2-yl)-1H-imidazo[4,5-b]pyrazin-2-ol]"
3,17.4 µM,"CCc1cnc2nc(O)n([C@@H](C)c3ccccc3)c2n1 [(S)-1-(1-phenylethyl)-6-ethyl-1H-imidazo[4,5-b]pyrazin-2-ol]"
4,2.7 µM,"CC(C)=Cc1cnc2nc(O)n([C@@H](C)c3ccccc3)c2n1 [(S)-6-(2-methylprop-1-enyl)-1-(1-phenylethyl)-1H-imidazo[4,5-b]pyrazin-2-ol]"
5,1.1 µM,"CSc1cnc2nc(O)n([C@@H](C)c3ccccc3)c2n1 [(S)-6-(methylthio)-1-(1-phenylethyl)-1H-imidazo[4,5-b]pyrazin-2-ol]"
6,>49 µM,"C[C@@H](CN1CCOCC1)n1c(O)nc2ncc(Br)nc21 [(S)-6-bromo-1-(1-morpholinopropan-2-yl)-1H-imidazo[4,5-b]pyrazin-2-ol]"
7,31.0 µM,"C[C@@H](c1ccccc1)n1c(O)nc2ncc(C3=CCCCC3)nc21 [(S)-6-cyclohexenyl-1-(1-phenylethyl)-1H-imidazo[4,5-b]pyrazin-2-ol]"
8,10.6 µM,"CCOc1cnc2nc(O)n([C@@H](C)c3ccccc3)c2n1 [(S)-6-ethoxy-1-(1-phenylethyl)-1H-imidazo[4,5-b]pyrazin-2-ol]"
9,1.0 µM,"C/C=C\c1cnc2nc(O)n([C@@H](C)c3ccccc3)c2n1 [(S,Z)-1-(1-phenylethyl)-6-(prop-1-enyl)-1H-imidazo[4,5-b]pyrazin-2-ol]"
10,3.1 µM,"CCC/C=C\Cc1cnc2nc(O)n([C@@H](C)c3ccccc3)c2n1 [(S,Z)-6-(hex-2-enyl)-1-(1-phenylethyl)-1H-imidazo[4,5-b]pyrazin-2-ol]"
11,6.0 µM,"C/C=C\c1cnc2nc(O)n(C3CCCCC3)c2n1 [(Z)-1-cyclohexyl-6-(prop-1-enyl)-1H-imidazo[4,5-b]pyrazin-2-ol]"
12,4.6 µM,"C/C=C\c1cnc2nc(O)n(C(C)C)c2n1 [(Z)-1-isopropyl-6-(prop-1-enyl)-1H-imidazo[4,5-b]pyrazin-2-ol]"

# Same assay, conditions: screen at pCa=6.5; † mean value, ‡ median value; listed as 1-((1R)-1-methyl-2-morpholin-4-ylethyl)-6-bromoimidazo[4,5-b]pyrazin-2-ol
row,SKM MF AC1.4,SMILES
1,5.19 µM,"C[C@H](CN1CCOCC1)n1c(O)nc2ncc(Br)nc21 [(R)-6-bromo-1-(1-morpholinopropan-2-yl)-1H-imidazo[4,5-b]pyrazin-2-ol]"

# Same assay, conditions: screen at pCa=6.5; † mean value, ‡ median value; listed as (R)-6-bromo-1-(1-morpholinopropan-2-yl)-1H-imidazo[4,5-b]pyrazin-2(3H)-one
row,SKM MF AC1.4,SMILES
1,5.2^‡ μM,"C[C@H](CN1CCOCC1)n1c(O)nc2ncc(Br)nc21 [(R)-6-bromo-1-(1-morpholinopropan-2-yl)-1H-imidazo[4,5-b]pyrazin-2-ol]"
